From article PMC9325410 (Clinical Pharmacology and Therapeutics, 2022)
Read-outs that look alike come from different tables or passages of the source.

Tests used:
[1] = after 20 mg and 75 mg CysA doses
OATP1B1/1B3 [2] = conditions: cited from earlier work
Renal clearance = type: in vivo, human
OATP1B1/1B3 [3] = type: in vivo, human
OATP1B1/1B3 [4] = conditions: ref 17 (pitavastatin), 19 (CP-I); cited from earlier work
[5] = +CysA 20 mg, 1 h before probe cocktail
[6] = otherwise (conditions other than rosuvastatin with 1-hour interval)

Compound: CC[C@@H]1NC(=O)[C@H]([C@H](O)[C@H](C)C/C=C/CO)N(C)C(=O)[C@H](C(C)C)N(C)C(=O)[C@H](CC(C)C)N(C)C(=O)[C@H](CC(C)C)N(C)C(=O)[C@@H](C)NC(=O)[C@H](C)NC(=O)[C@H](CC(C)C)N(C)C(=O)[C@H](C(C)C)NC(=O)[C@H](CC(C)C)N(C)C(=O)CN(C)C1=O [AM1, Cyclosporin AM1]
- Plasma concentrations relative to CysA (times lower) [1]: 10 times
- inhibition of OATP1B1/1B3 (in words) (OATP1B1/1B3 [2]): inhibitor

Compound: CC1=C(CCC(=O)O)c2cc3nc(cc4[nH]c(cc5[nH]c(cc1n2)c(C)c5CCC(=O)O)c(CCC(=O)O)c4C)C(CCC(=O)O)=C3C.Cl.Cl [CP-III, Coproporphyrin III dihydrochloride]
- reduction of CLR by CysA (Renal clearance; CysA 75 mg): 24%

Compound: O=C(O)C[C@H](O)C[C@H](O)/C=C/c1c(C2CC2)nc2ccccc2c1-c1ccc(F)cc1 [pitavastatin]
- AUCR: AUC0-24 Geometric mean ratio +CysA/Control (90% CI) (OATP1B1/1B3 [3]; [5]): 1.64
- AUCR: AUC0-24 Geometric mean ratio +CysA/Control (90% CI) (OATP1B1/1B3 [3]; +CysA 75 mg (-1hr)): 3.46
- AUCR: AUC0-24 Geometric mean ratio +CysA/Control (90% CI) (OATP1B1/1B3 [3]; +CysA 75 mg (-3hr)): 2.38
- hepatic extraction (PBPK model analysis) (OATP1B1/1B3 [4]): 0.43

Compound: CC(C)c1nc(N(C)S(C)(=O)=O)nc(-c2ccc(F)cc2)c1/C=C/[C@@H](O)C[C@@H](O)CC(=O)O [rosuvastatin]
- AUCR: AUC0-24 Geometric mean ratio +CysA/Control (90% CI) (OATP1B1/1B3 [3]; [5]): 1.39
- AUCR: AUC0-24 Geometric mean ratio +CysA/Control (90% CI) (OATP1B1/1B3 [3]; +CysA 75 mg (-1hr)): 2.16
- AUCR: AUC0-24 Geometric mean ratio +CysA/Control (90% CI) (OATP1B1/1B3 [3]; +CysA 75 mg (-3hr)): 1.81
- change of CLR by CysA (in words) (Renal clearance; CysA administered with a 1-hour interval): decreased
- change of CLR by CysA (in words) (Renal clearance; [6]): no significant change

Compound: CCCCC(=O)N(Cc1ccc(-c2ccccc2-c2nnn[nH]2)cc1)[C@H](C(=O)O)C(C)C [valsartan]
- AUCR: AUC0-24 Geometric mean ratio +CysA/Control (90% CI) (OATP1B1/1B3 [3]; [5]): 1.43
- AUCR: AUC0-24 Geometric mean ratio +CysA/Control (90% CI) (OATP1B1/1B3 [3]; +CysA 75 mg (-1hr)): 1.77
- AUCR: AUC0-24 Geometric mean ratio +CysA/Control (90% CI) (OATP1B1/1B3 [3]; +CysA 75 mg (-3hr)): 1.85
- change of CLR by CysA (in words) (Renal clearance; [6]): no significant change

Compound: coproporphyrin I [CP-I]
- hepatic extraction (PBPK model analysis) (OATP1B1/1B3 [4]): 0.28
